In doi:10.1101/2021.12.08.471775v2 (biorxiv, 2022):

Biological target: α4β2Rs (rat α4β2 nAChRs) (Rattus norvegicus, UniProt P09483+P12390)
Format: cell-based

Sequence of α4β2Rs (rat α4β2 nAChRs) (P09483 31-630): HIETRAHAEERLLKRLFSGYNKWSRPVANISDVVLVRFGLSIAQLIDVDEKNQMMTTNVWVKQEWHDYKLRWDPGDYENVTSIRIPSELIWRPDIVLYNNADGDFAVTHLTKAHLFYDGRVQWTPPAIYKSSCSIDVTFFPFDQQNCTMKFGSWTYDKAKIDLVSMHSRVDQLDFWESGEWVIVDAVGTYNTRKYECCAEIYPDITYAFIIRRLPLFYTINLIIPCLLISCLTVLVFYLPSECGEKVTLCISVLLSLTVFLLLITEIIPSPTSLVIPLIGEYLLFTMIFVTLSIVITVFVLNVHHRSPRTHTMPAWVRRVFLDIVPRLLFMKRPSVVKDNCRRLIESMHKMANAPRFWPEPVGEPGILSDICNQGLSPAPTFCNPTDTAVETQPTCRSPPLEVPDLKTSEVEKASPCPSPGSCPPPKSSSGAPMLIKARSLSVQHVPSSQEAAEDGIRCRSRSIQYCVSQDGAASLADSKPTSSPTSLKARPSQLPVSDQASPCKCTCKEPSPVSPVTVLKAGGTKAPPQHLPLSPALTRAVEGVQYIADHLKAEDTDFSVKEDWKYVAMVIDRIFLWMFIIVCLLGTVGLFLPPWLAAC
Sequence of α4β2Rs (rat α4β2 nAChRs) (P12390 25-500): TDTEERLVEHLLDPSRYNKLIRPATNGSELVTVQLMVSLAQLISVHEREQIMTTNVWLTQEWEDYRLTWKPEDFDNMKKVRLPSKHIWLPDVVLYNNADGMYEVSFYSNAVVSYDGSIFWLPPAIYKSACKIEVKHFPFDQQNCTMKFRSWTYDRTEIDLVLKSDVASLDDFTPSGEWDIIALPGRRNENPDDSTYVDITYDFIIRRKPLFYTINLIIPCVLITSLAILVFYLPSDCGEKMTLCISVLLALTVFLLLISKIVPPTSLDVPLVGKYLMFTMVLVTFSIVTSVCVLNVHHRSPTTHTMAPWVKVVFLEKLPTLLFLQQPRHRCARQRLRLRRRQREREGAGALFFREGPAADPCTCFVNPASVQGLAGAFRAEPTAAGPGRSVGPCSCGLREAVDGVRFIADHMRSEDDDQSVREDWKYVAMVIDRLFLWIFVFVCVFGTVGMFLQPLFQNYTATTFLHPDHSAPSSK

## Fc1ncccc1OC[C@@H]1C=CCN1 [Nifene]
  Ki: 0.31 nM
